Source: patent publication US10364256B2 (GlaxoSmithKline Intellectual Property Development Limited, priority 2015, dated 2019)
Where two headings read alike, the source gives them in different places.

How the values were obtained:
[1] = test system: NQO1 specific enzyme activity in BEAS-2B cells (marker for NRF2 activation); test: BEAS-2B NQO1 MTT Assay; type: cell-based; settings: Homo sapiens, compound incubated 48 hours, read-out: EC50 (NQO1 specific enzyme activity induction)
Summary of the method: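 BEAS-2B cells treated with compound for 48 h at 37 °C, then lysed; NQO1 activity in lysates measured kinetically by MTT reduction at A570 over 30 min. pEC50 from 3-parameter fit of ΔOD/min versus log concentration; lysate also taken for Cell Titer Glo.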

[2] = molecular target: T1, Keap1 Kelch domain (321-609) / TAMRA-labeled 16mer NRF2 peptide (ETGE motif) (Homo sapiens, UniProt Q14145); test: NRF2-Keap1 FP Assay (Keap1 Kelch fluorescence polarization); type: binding; settings: 20 nM Keap1 (321-609), 8 nM Tamra labeled peptide
T1 construct: the Kelch domain (321-609) of Keap1 is used
T1 sequence (Q14145 321-609): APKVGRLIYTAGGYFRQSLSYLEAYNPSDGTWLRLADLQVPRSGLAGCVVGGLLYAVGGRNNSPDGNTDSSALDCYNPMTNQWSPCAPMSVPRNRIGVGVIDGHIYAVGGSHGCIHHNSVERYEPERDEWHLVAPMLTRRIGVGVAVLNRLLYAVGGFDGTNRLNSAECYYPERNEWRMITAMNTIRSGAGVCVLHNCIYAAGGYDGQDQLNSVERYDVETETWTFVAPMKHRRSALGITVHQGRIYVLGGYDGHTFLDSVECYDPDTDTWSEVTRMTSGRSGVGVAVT
Summary of the method: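 Compound dilutions (3-fold) were incubated 1 hr at room temperature with 20 nM Keap1 Kelch (321-609) and 8 nM TAMRA-labeled ETGE 16mer peptide. Buffer was 50 mM Tris pH 8.0, 100 mM NaCl, 5 mM MgCl2, 1 mM DTT, 2 mM CHAPS, 0.005% BSA. Fluorescence polarization (mP) was normalized to controls and fitted with a four-parameter equation to give pIC50.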

Row | IC50 [2] [nM] | SMILES | EC50 [1] [nM] | EC50 ([1]; BEAS-2B, 48 h) [nM]
1 | 10 to 100 | CC(CC1CCCCC1)Oc1cccc(-c2cccc(-n3ncc(C(=O)O)c3C3CC3c3cn(C)nn3)c2)c1 (stereo not shown) [Example 218, 1-(3′-((1-Cyclohexylpropan-2-yl)oxy)-[1,1′-biphenyl]-3-yl)-5-(2-(1-methyl-1H-1,2,3-triazol-4-yl)cyclopropyl)-1H-pyrazole-4-carboxylic Acid] | 10 to 100 | –
2 | 10 to 100 | CCC[C@@H]1CCCCN1C(=O)c1cccc(-c2cccc(-n3ncc(C(=O)O)c3C3CC3c3cnn(C)c3)c2)c1F (stereo partly drawn) [Example 214, 1-(2′-Fluoro-3′-((R)-2-propylpiperidine-1-carbonyl)-[1,1′-biphenyl]-3-yl)-5-(2-(1-methyl-1H-pyrazol-4-yl)cyclopropyl)-1H-pyrazole-4-carboxylic Acid] | – | 100 to 1000
3 | 10 to 100 | CCC[C@@H]1CCCCN1C(=O)c1cccc(-c2cccc(-n3ncc(C(=O)O)c3C3CC3(F)F)c2)c1 (stereo partly drawn) [Example 67, 5-(2,2-Difluorocyclopropyl)-1-(3′-((R)-2-propylpiperidine-1-carbonyl)-[1,1′-biphenyl]-3-yl)-1H-pyrazole-4-carboxylic Acid] | – | 100 to 1000
4 | 10 to 100 | CC(Oc1cccc(-c2cccc(-n3ncc(C(=O)O)c3C3CC3c3cn(C)nn3)c2)c1)C1CCCCC1 (stereo not shown) [Example 219, 1-(3′-(1-Cyclohexylethoxy)-[1,1′-biphenyl]-3-yl)-5-(2-(1-methyl-1H-1,2,3-triazol-4-yl)cyclopropyl)-1H-pyrazole-4-carboxylic acid] | – | 10 to 100
5 | 10 to 100 | CCC[C@@H]1CCCCN1C(=O)c1cccc(-c2cccc(-n3ncc(C(=O)O)c3[C@H]3C[C@@H]3c3cn(CC)nn3)c2)c1 (racemic) [Example 201, 5-((1,2-trans)-2-(1-Ethyl-1H-1,2,3-triazol-4-yl)cyclopropyl)-1-(3′-((R)-2-propylpiperidine-1-carbonyl)-[1,1′-biphenyl]-3-yl)-1H-pyrazole-4-carboxylic acid] | – | 100 to 1000
6 | 100 to 1000 | Cn1cc([C@H]2C[C@@H]2c2c(C(=O)O)cnn2-c2cccc(-c3cccc(OCC4CCCC(Cl)C4)c3)c2)nn1 (mixture of isomers) [Example 187, 1-(3′-((3-chlorocyclohexyl)methoxy)-[1,1′-biphenyl]-3-yl)-5-((1,2-trans)-2-(1-methyl-1H-1,2,3-triazol-4-yl)cyclopropyl)-1H-pyrazole-4-carboxylic acid] | 10 to 100 | –
7 | 100 to 1000 | O=C(O)c1cnn(-c2cccc(-c3cccc(-n4ncc5c4CCCC5)c3)c2)c1C1CC1 [Example 62, 5-cyclopropyl-1-(3′-(4,5,6,7-tetrahydro-1H-indazol-1-yl)-[1,1′-biphenyl]-3-yl)-1H-pyrazole-4-carboxylic Acid] | – | 100 to 1000
8 | 10 to 100 | Cn1cc([C@@H]2C[C@H]2c2c(C(=O)O)cnn2-c2cccc(-c3cccc(OCC4CCCCC4)c3)c2)nn1 [Example 171, 1-(3′-(Cyclohexylmethoxy)-[1,1′-biphenyl]-3-yl)-5-((1R,2R)-2-(1-methyl-1H-1,2,3-triazol-4-yl)cyclopropyl)-1H-pyrazole-4-carboxylic acid] | 10 to 100 | –
9 | 100 to 1000 | Cn1cc(C2CC2c2c(C(=O)O)cnn2-c2cccc(-c3cccc(OCc4ccccc4)c3)c2)nn1 (stereo not shown) [Example 221] | 100 to 1000 | –
10 | > 10000 | Cc1nnc(-c2cccc(-c3cccc(-n4ncc(C(=O)O)c4C4CC4)c3)c2)o1 [Example 210, 5S-Cyclopropyl-1-(3′-(5-methyl-1,3,4-oxadiazol-2-yl)-[1,1′-biphenyl]-3-yl)-1H-pyrazole-4-carboxylic acid] | 100 to 1000 | –
11 | 10 to 100 | CO[C@H]1CC[C@H](COc2cccc(-c3cccc(-n4ncc(C(=O)O)c4[C@H]4C[C@@H]4c4cn(C)nn4)c3)c2)CC1 (racemic) [Example 176, 1-(3′-(((1R,4S)-4-Methoxycyclohexyl)methoxy)-[1,1′-biphenyl]-3-yl)-5-((1,2-trans)-2-(1-methyl-1H-1,2,3-triazol-4-yl)cyclopropyl)-1H-pyrazole-4-carboxylic acid] | 100 to 1000 | –
